Laboratory results taken from patent US8092785B2, “Process for milling poorly soluble drugs in presence of liquid propellants” (Glaxo Group Limited, priority 2004, dated 2012).

Key:
[1] = Physical form of milled, co-milled or spray dried product by XRPD; assay type: physicochemical
Protocol: Drug substance prepared according to the present invention maybe characterised by a series of physical analytical techniques well known to those skilled in the art for analysing physical form, for instance XPRD, polarised light microscopy (PLM), thermal analysis, FT-IR and laser diffraction particle sizing.
500 mg of drug or drug:polymer blend (PVP K30, PVP/VA 64 (BASF) and PVP/VA 37 (BASF)) (1:2 w/w) was ball milled in a mixer mill (MM2 Mixer mill, Glen Creston Ltd). The sample was milled at 17.5 1/sec in a 25 ml chamber for 120 minutes at 2% w/v with 2×12 mm diameter and 6×7 mm diameter stainless steel ball bearings.
500 mg of drug or drug:polymer blend (PVP K30) (1:2 w/w) was placed in a 25 ml milling chamber (2% w/v). Grinding media of 2×5 mm, 2×7 mm, 2×9 mm and 2×12 mm ball bearings were added. 10 g of 134a (Du Pont) was then added into the milling chamber via a valve. The sample was then milled for 2×20 minute periods at a frequency of 25 1/sec using a Retsch MM200 Mixer mill.
XPRD patterns of resultant products are shown as FIG. 1.1 to 1.4.
500 mg of drug and 1 g of polymer (1:2 w/w) was placed in a 25 ml measuring chamber. Grinding media of 2 mm Yttrium-Zirconium beads (equivalent volume 5 ml) were added. 12 ml of propellant 134a was then added into the milling chamber via a valve. The sample was then milled for 30 minutes at a frequency of 25 1/sec using a Retsch MM200 Mixer mill.
Drug (2 g) and polymer (3 g) were dissolved in approximately 200 ml of dimethyl formamide and spray dried at approximately 2 ml/min using a lab scale spray drier (Buchi B191, outlet temperature about 95° C.). The spray dried powders were then further dried at 65° C. under vacuum for 48 hrs. The dispersions were amorphous by XRPD.
Thus, the co-milling process has not compromised the physical form of compound A.

[2] = Particle size of milled product (SEM analysis / particle sizing); assay type: physicochemical
Protocol: Drug substance prepared according to the present invention maybe characterised by a series of physical analytical techniques well known to those skilled in the art for analysing physical form, for instance XPRD, polarised light microscopy (PLM), thermal analysis, FT-IR and laser diffraction particle sizing. 500 mg of drug or drug:polymer blend (PVP K30, PVP/VA 64 (BASF) and PVP/VA 37 (BASF)) (1:2 w/w) was ball milled in a mixer mill (MM2 Mixer mill, Glen Creston Ltd). The sample was milled at 17.5 1/sec in a 25 ml chamber for 120 minutes at 2% w/v with 2×12 mm diameter and 6×7 mm diameter stainless steel ball bearings. 500 mg of drug or drug:polymer blend (PVP K30) (1:2 w/w) was placed in a 25 ml milling chamber (2% w/v). Grinding media of 2×5 mm, 2×7 mm, 2×9 mm and 2×12 mm ball bearings were added. 10 g of 134a (Du Pont) was then added into the milling chamber via a valve. The sample was then milled for 2×20 minute periods at a frequency of 25 1/sec using a Retsch MM200 Mixer mill.

[3] = parameters: key: Those in class II have low solubility and high permeability; those in class IV have low solubility and low permeability; settings: classified according to solubility and permeability (Amidon et al); cited from earlier work
[4] = Dissolution testing of ball milled and 134a ball milled products (USP II apparatus, sink conditions); assay type: physicochemical; settings: neat drug ball milled in 134a, 37.5° C., 50 RPM
Protocol: The dissolution profiles of study compounds prepared by ball milling and 134a ball milling were measured according to the following method:
Dissolution testing was carried out under sink conditions using a VanKel USP II dissolution apparatus (fluid pump Model 17-2300, water bath VK750D, water bath stirrer VK7010). Dissolution testing was carried out at 37.5° C.+/−0.5° C. (Digitron Type K thermocouple thermometer). Vessels were stirred at 50 RPM. Samples underwent online UV analysis (Hewlett Packard 8453) at time points 0, 2, 5, 10, 15, 20, 30, 45 and 60 minutes. Samples were filtered with a 10 μm filters (Anachem). The pH 6.8 0.1M phosphate buffer^1 was degassed prior to commencement of the dissolution run (Copley Dissofill, model DSF2). Standard curves were prepared by dissolving drug in acetonitrile:water (1:1) for carbamazepine and glibenclamide or acetonitrile:pH 6.8 buffer (1:1) for dipyridamole and indomethacin. Drug concentration, UV cell path length, dissolution media and wavelength of detection were all compound specific. All analysis was carried out in triplicate. ^1 pH 6.8 buffer: 20 l prepared by addition of 10 l of Na2HPO4.2H2O 17.8 g/l to 10 l of NaH2PO4.H2O 13.8 g/l. pH was confirmed using a pH meter.

[5] = ball milling with propellant 134a, 2×20 minute
[6] = conventional ball milling, 120 minutes, no propellant
[7] = ball milling with 134a, compared to conventionally milled product

Compound | physical form of product [1, 5] | physical form of product [1, 6] | particle size [2, 7] | particle size ([2]; conventional ball milling) | Biopharmaceutics Classification system class [3] | dissolution rate [4]
NC(=O)N1c2ccccc2C=Cc2ccccc21 [carbamazepine, Carbamazepine] | complete conversion to a crystalline form, form III | conversion to a crystalline form, form III | significant decrease in particle size | no significant decrease in particle size | II | –
OCCN(CCO)c1nc(N2CCCCC2)c2nc(N(CCO)CCO)nc(N3CCCCC3)c2n1 [dipyridamole] | dipyridamole form II | predominantly amorphous product | – | – | II | improved in dissolution rate
COc1ccc(Cl)cc1C(=O)NCCc1ccc(S(=O)(=O)NC(=O)NC2CCCCC2)cc1 [glibenclamide] | remained in the same crystalline form as the starting material | amorphous product | significant decrease in particle size | – | II | –
COc1ccc2c(c1)c(CC(=O)O)c(C)n2C(=O)c1ccc(Cl)cc1 [indomethacin] | γ form | predominantly amorphous product | significant decrease in particle size | – | II | –
